From patent US20140011799A1 (Bristol-Myers Squibb Company, priority 2012, published 2014)
pIC50: −log10 of the molar value.

Assays:
hepatic lipase (HL) = molecular target: T1, hepatic lipase (HL) (Homo sapiens, UniProt P11150); experiment: Hepatic lipase (HL) enzymatic assay, fluorescent substrate A10070 in DMPG vesicles; assay type: biochemical; conditions: HL partially purified from conditioned media of COS cells; compound preincubated 30 min at 37° C; read-out: HL IC50
T1 construct: made in house; host or cells: COS cells (conditioned medium, partially purified)
T1 sequence (P11150 23-499): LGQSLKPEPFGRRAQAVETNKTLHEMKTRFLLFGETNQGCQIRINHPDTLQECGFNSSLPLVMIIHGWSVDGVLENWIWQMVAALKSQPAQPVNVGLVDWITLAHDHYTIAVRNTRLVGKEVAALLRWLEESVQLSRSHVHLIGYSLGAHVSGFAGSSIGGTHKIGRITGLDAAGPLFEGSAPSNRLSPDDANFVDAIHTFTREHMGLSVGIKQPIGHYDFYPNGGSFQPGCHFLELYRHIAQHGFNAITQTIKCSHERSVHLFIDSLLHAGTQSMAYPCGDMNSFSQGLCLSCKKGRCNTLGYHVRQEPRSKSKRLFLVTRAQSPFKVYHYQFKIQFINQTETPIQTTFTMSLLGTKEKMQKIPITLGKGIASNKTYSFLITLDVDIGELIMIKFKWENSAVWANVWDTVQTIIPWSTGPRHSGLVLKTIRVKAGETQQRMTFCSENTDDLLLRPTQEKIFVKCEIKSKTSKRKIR
Description: Endothelial lipase (EL) and hepatic lipase (HL) activities were measured using a fluorescent substrate, A10070, (Invitrogen, CA) doped into an artificial vesicle containing DMPG (Avanti Polar Lipids) as the excipient. Vesicles were prepared by combining 571 μL of 29 mM DMPG in a 1:1 mixture of MeOH and CHCl3 with 2000 μL of 1 mM A10070 in a 1:1 mixture of MeOH and CHCl3. The mixture was dried under nitrogen in multiple vials then resuspended in 20 mL total volume of 50 mM HEPES pH 8.0 buffer containing 50 mM NaCl and 0.2 mM EDTA. The sample was allowed to sit at room temperature for 15 min and then was sonicated 3×4 mins on ice with a Branson Sonicator using duty cycle 1. This preparation provides vesicles with a mole fraction of 0.11 for the FRET substrate.
The enzymatic assay was measured using 384-well white Optiplates. Each well contained 20 μL of assay buffer (50 mM HEPES pH 8.0, 50 mM NaCl and 1 mM CaCl2) and 0.25 μL of a DMSO solution containing a compound of interest. EL or HL (10 μL) was added and allowed to incubate with the compound for 30 min at 37° C. The source of EL was conditioned media obtained from HT-1080 cells that were transformed using RAGE technology (Athersys) to overexpress endogenous EL, and HL was partially purified from conditioned media obtained from COS cells overexpressing HL. The reaction was started by the addition of 10 μL of a 1:10 dilution of vesicles. The final total reaction volume was […]. The reaction rates were measured on a Gemini plate reader with an excitation wavelength of 490 nm and an emission wavelength of 530 nm. Readings were taken over a period of 60 minutes, and the slope between 300 and 900 secs of the readout was used to calculate the rate of the reaction.

Endothelial lipase (EL) = molecular target: T2, Endothelial lipase (EL) (Homo sapiens, UniProt Q9Y5X9); experiment: Endothelial lipase (EL) enzymatic assay, fluorescent substrate A10070 in DMPG vesicles; assay type: biochemical; conditions: EL from conditioned media of HT-1080 cells; compound preincubated 30 min at 37° C; read-out: EL IC50
T2 construct: HT-1080 cells that were transformed using RAGE technology (Athersys) to overexpress endogenous EL; endogenous in cells; conditioned medium used
T2 sequence (Q9Y5X9 21-500): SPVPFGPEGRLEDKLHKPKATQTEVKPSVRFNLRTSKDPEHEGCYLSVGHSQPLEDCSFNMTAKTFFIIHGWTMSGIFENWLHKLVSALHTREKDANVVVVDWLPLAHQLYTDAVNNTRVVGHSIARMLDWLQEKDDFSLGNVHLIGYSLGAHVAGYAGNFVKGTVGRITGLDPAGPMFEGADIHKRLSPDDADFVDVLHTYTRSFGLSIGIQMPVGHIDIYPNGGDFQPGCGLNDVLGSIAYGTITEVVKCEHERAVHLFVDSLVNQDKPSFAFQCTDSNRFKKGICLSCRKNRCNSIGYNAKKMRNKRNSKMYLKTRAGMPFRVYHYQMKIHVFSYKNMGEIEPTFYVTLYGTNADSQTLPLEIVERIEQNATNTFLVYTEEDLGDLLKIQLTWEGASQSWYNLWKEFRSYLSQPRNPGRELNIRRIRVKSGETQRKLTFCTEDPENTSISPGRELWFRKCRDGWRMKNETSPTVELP
Summary of the method: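 Vesicles prepared: A10070 dried with DMPG, resuspended in HEPES pH 8.0/NaCl/EDTA, sonicated on ice. Enzyme incubated with compound 30 min at 37° C. Reaction started with 1:10 diluted vesicles. Fluorescence (490/530 nm) followed 60 min; slope from 300–900 secs gives rate.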

| pIC50 (hepatic lipase (HL)) | pIC50 (Endothelial lipase (EL)) | SMILES |
| --- | --- | --- |
| > 8.00 | > 8.00 | CS(=O)(=O)C(c1nnc(CC2SC(=O)NC2=O)o1)c1nc2ccc(-c3ccc(C(=O)OCc4ccccc4)cc3)cc2s1 (stereo not drawn) [Example 105, benzyl 4-(2-((5-((2,4-dioxo-1,3-thiazolidin-5-yl)methyl)-1,3,4-oxadiazol-2-yl)(methylsulfonyl)methyl)-1,3-benzothiazol-6-yl)benzoate] |
| 5.87 | > 8.00 | O=C1NC(=O)C(Cc2nnc(C(c3nc4ccc(-c5ccc(C(=O)N6CCOCC6)cc5)cc4s3)S(=O)(=O)CCN3CCOCC3)o2)S1 (stereo not drawn) [Example 106, 5-((5-((6-(4-(4-morpholinylcarbonyl)phenyl)-1,3-benzothiazol-2-yl)((2-(4-morpholinyl)ethyl)sulfonyl)methyl)-1,3,4-oxadiazol-2-yl)methyl)-1,3-thiazolidine-2,4-dione] |
| 7.89 | 7.55 | CC(C)(C)OC(=O)Cc1nnc(C(c2nc3ccc(-c4ccc(C(=O)N5CCOCC5)cc4)cc3s2)S(C)(=O)=O)o1 (stereo not drawn) [Example 107, tert-butyl (5-((methylsulfonyl)(6-(4-(4-morpholinylcarbonyl)phenyl)-1,3-benzothiazol-2-yl)methyl)-1,3,4-oxadiazol-2-yl)acetate] |
| 7.85 | 7.62 | CC(C)(C)OC(=O)Cc1nnc(C(c2nc3ccc(-c4ccc(C(=O)N5CCOCC5)cc4)cc3s2)S(=O)(=O)Cc2ccccc2)o1 (stereo not drawn) [Example 108, tert-butyl (5-((benzylsulfonyl)(6-(4-(4-morpholinylcarbonyl)phenyl)-1,3-benzothiazol-2-yl)methyl)-1,3,4-oxadiazol-2-yl)acetate] |
| 6.12 | > 8.00 | C[C@]1(Cc2nnc(C(c3nc4ccc(-c5ccc(C(=O)N6CCOCC6)cc5)cc4s3)S(C)(=O)=O)o2)OC(=O)NC1=O (stereo partly drawn) [Example 109, (5R)-5-methyl-5-((5-((methylsulfonyl)(6-(4-(4-morpholinylcarbonyl)phenyl)-1,3-benzothiazol-2-yl)methyl)-1,3,4-oxadiazol-2-yl)methyl)-1,3-oxazolidine-2,4-dione] |
| 5.49 | 7.72 | CS(=O)(=O)C(c1nnc(C[C@H]2NS(=O)(=O)NC2=O)o1)c1nc2ccc(-c3ccc(C(=O)N4CCOCC4)cc3)cc2s1 (stereo partly drawn) [Example 110, (4R)-4-((5-((methylsulfonyl) (6-(4-(4-morpholinylcarbonyl)phenyl)-1,3-benzothiazol-2-yl)methyl)-1,3,4-oxadiazol-2-yl)methyl)-1,2,5-thiadiazolidin-3-one 1,1-dioxide] |
| 6.20 | > 8.00 | CS(=O)(=O)C(c1nnc(C[C@@H]2NS(=O)(=O)NC2=O)o1)c1nc2ccc(-c3ccc(C(=O)N4CCOCC4)cc3)cc2s1 (stereo partly drawn) [Example 111, (4S)-4-((5-((methylsulfonyl) (6-(4-(4-morpholinylcarbonyl)phenyl)-1,3-benzothiazol-2-yl)methyl)-1,3,4-oxadiazol-2-yl)methyl)-1,2,5-thiadiazolidin-3-one 1,1-dioxide] |
| > 8.00 | > 8.00 | COC(=O)CCS(=O)(=O)C(c1nnc(CNS(N)(=O)=O)o1)c1nc2ccc(-c3cnn(C)c3)cc2s1 (stereo not drawn) [Example 112, methyl 3-(((6-(1-methyl-1H-pyrazol-4-yl)-1,3-benzothiazol-2-yl)(5-((sulfamoylamino)methyl)-1,3,4-oxadiazol-2-yl)methyl)sulfonyl)propanoate] |
| 6.66 | > 8.00 | Cn1cc(-c2ccc3nc(C(c4nnc(CNS(N)(=O)=O)o4)S(C)(=O)=O)sc3c2)cn1 (stereo not drawn) [Example 113, N-((5-((6-(1-methyl-1H-pyrazol-4-yl)-1,3-benzothiazol-2-yl)(methylsulfonyl)methyl)-1,3,4-oxadiazol-2-yl)methyl) sulfamide] |
| 6.66 | > 8.00 | CS(=O)(=O)C(c1nnc(CNS(N)(=O)=O)o1)c1nc2ccc(Br)cc2s1 (stereo not drawn) [Example 114, N-((5-((6-bromo-1,3-benzothiazol-2-yl)(methylsulfonyl)methyl)-1,3,4-oxadiazol-2-yl)methyl) sulfamide] |
| < 4.60 | 6.93 | COCCS(=O)(=O)C(c1nnc(CNS(=O)(=O)NC(=O)OC(C)(C)C)o1)c1nc2ccc(-c3cnn(C)c3)cc2s1 (stereo not drawn) [Example 115, tert-butyl (((5-(((2-methoxyethyl)sulfonyl)(6-(1-methyl-1H-pyrazol-4-yl)-1,3-benzothiazol-2-yl)methyl)-1,3,4-oxadiazol-2-yl)methyl)sulfamoyl)carbamate] |
| 6.84 | > 8.00 | COCCS(=O)(=O)C(c1nnc(CNS(N)(=O)=O)o1)c1nc2ccc(-c3cnn(C)c3)cc2s1 (stereo not drawn) [Example 116, N-((5-(((2-methoxyethyl)sulfonyl)(6-(1-methyl-1H-pyrazol-4-yl)-1,3-benzothiazol-2-yl)methyl)-1,3,4-oxadiazol-2-yl)methyl) sulfamide] |
| 6.64 | 7.62 | Cc1noc(C)c1-c1ccc2nc(C(c3nnc(CNS(N)(=O)=O)o3)S(C)(=O)=O)sc2c1 (stereo not drawn) [Example 117, N-[(5-{[6-(3,5-dimethyl-1,2-oxazol-4-yl)-1,3-benzothiazol-2-yl](methylsulfonyl)methyl}-1,3,4-oxadiazol-2-yl)methyl] sulfuric diamide] |
| 6.40 | 7.74 | Cc1cc(-c2ccc3nc(C(c4nnc(CNS(N)(=O)=O)o4)S(C)(=O)=O)sc3c2)n(C)n1 (stereo not drawn) [Example 118, N-[(5-{[6-(1,3-dimethyl-1H-pyrazol-5-yl)-1,3-benzothiazol-2-yl](methylsulfonyl)methyl}-1,3,4-oxadiazol-2-yl)methy] sulfuric diamide] |
| > 8.00 | > 8.00 | C=CCS(=O)(=O)C(c1nnc(CNS(N)(=O)=O)o1)c1nc2ccc(-c3ccccc3)cc2s1 (stereo not drawn) [Example 120, N-((5-((allylsulfonyl)(6-phenyl-1,3-benzothiazol-2-yl)methyl)-1,3,4-oxadiazol-2-yl)methyl)sulfamide] |
| 5.18 | 6.83 | CC(C)(C)OC(=O)NS(=O)(=O)NCc1nnc(C(c2nc3ccc(-c4cncnc4)cc3s2)S(=O)(=O)Cc2ccccc2)o1 (stereo not drawn) [Example 121, tert-butyl (((5-((benzylsulfonyl)(6-(5-pyrimidinyl)-1,3-benzothiazol-2-yl)methyl)-1,3,4-oxadiazol-2-yl)methyl)sulfamoyl)carbamate] |

| SMILES | pIC50 (hepatic lipase (HL)) | pIC50 (Endothelial lipase (EL)) |
| --- | --- | --- |
| COCCS(=O)(=O)C(c1nnc(CNS(N)(=O)=O)o1)c1nc2ccc(-c3ccccc3)cc2s1 (stereo not drawn) [Example 119, N-[(5-{[(2-methoxyethyl)sulfonyl](6-phenyl-1,3-benzothiazol-2-yl)methyl}-1,3,4-oxadiazol-2-yl)methyl]sulfuric diamide] | > 8.00 | > 8.00 |
| COC(=O)NCCS(=O)(=O)C(c1nnc(CNS(N)(=O)=O)o1)c1nc2ccc(-c3ccccc3)cc2s1 (stereo not drawn) [Example 122, methyl (2-(((6-phenyl-1,3-benzothiazol-2-yl)(5-((sulfamoylamino)methyl)-1,3,4-oxadiazol-2-yl)methyl)sulfonyl)ethyl)carbamate] | > 8.00 | > 8.00 |
